“And” between values parts separate entries of the source, which are not always exact repeats. Equal values may be shown once. “Also recorded” adds a separate entry of the source.
How the values were obtained:
[1] = Body weight and lipid change of overweight rats treated 10 days by daily gavage; assay type: in vivo; details: overweight male Wistar rats, 10-day daily gavage; oleoyl-estrone 10 micromol/kg, dexfenfluramine 3 mg/kg, sibutramine 5 mg/kg
Text: (§1) Forty-five day-old male Wistar rats were used. The rats were kept in collective cages in a light cycle, temperature, and humidity-controlled environment. They were fed tap water and a self-selected cafeteria diet (containing an excess of tasty, energy-dense foods, as well as standard chow) for 45 additional days. Then they were subjected to a 5-day diet adaptation period, in which they had rat chow as the sole food available. At this point, the rats weighed 350-370 g and had plenty of body fat. Maintaining the availability of rat chow (daily consumption by the group was recorded) and tap water, body weight was recorded daily. The animals were given a daily gavage of either 0.2 mL of sunflower oil or the same vehicle containing oleoyl-estrone.
(§2) Six groups of animals were used: • a) controls, receiving a daily gavage of 0.2 mL of sunflower oil; • b) oleoyl-estrone, receiving the same daily gavage of 0.2 mL of sunflower oil, but containing oleoyl-estrone, to a a daily dose of 10 micromol per kg of body weight; • c) dexfenfluramine: receiving the same daily gavage of 0.2 mL of sunflower oil, and a second gavage of 0.2 mL of dexfenfluramine in water, to a a daily dose of 3 mg per kg of body weight; • d) dexfenfluramine plus oleoyl-estrone: receiving both gavages, 0.2 mL of oil and oleoyl-estrone (to a daily dose of 10 micromol per kg of body weight) and 0.2 mL of water and dexfenfluramine, to a daily dose of 3 mg per kg of body weight; • e) sibutramine: receiving the same daily gavage of 0.2 mL of sunflower oil, and a second gavage of 0.2 mL of sibutramine in water, to a a daily dose of 5 mg per kg of body weight; • f) sibutramine plus oleoyl-estrone: receiving both gavages, 0.2 mL of oil and oleoyl-estrone (to a daily dose of 10 micromol per kg of body weight) and 0.2 mL of water and sibutramine, to a daily dose of 5 mg per kg of body weight.
(§3) The treatment was maintained up to 10 days, when the animals were killed by decapitation, and their blood and carcass were used for analyses. Plasma was separated from the blood. The plasma was preserved frozen until its utilization for the estimation of glucose, cholesterol, triacylglycerol, free fatty acids, and insulin levels using standard methods, as well as for the estimation of alanine- and aspartate-transaminase activities.
The rat corpses, partially exsanguinated were dissected. The stomach and intestines were cleaned of their contents. The remaining carcass was sealed into polyethylene bags, autoclaved and blended to a fine paste. This paste was analysed for lipid content by extraction using trichloromethane/methanol and corrected by its water content. Lipid content in the paste was referred to whole in vivo body weight for comparison.
(§4) Samples of the rat paste were dried and used for the estimation of their caloric content using a bomb calorimeter. The initial values for lipid content were calculated from the corresponding in vivo body weights at the beginning of the experiment and applying to all the animals the mean percentage of lipid content found in the control (vehicle only) group at the end of the experiment. This same procedure was used to determine the overall energy content of the carcasses by using the experimentally found energy content of the rats in the control group. Likewise, the energy content of the pellet diet was also measured and used to estimate the energy intake of the animals.

[2] = Energy balance (carcass energy, food/energy intake, energy expenditure) of overweight rats treated 10 days; assay type: in vivo, male Wistar rats; details: for carcass energy content (ranking among groups): end of 10-day treatment, bomb calorimeter; for decrease in food consumption / loss of energy from the internal stores / net contribution of internal stores to energy expenditure: overweight male Wistar rats, 10-day daily gavage, same doses
Text: as §1, §2, §3, §4
Energy expenditure (Ee) was estimated as the difference between energy intake (Ei) and accrual (Ea), since: Ei=Ee±Ea.

[3] = Plasma composition of rats after 10 days of treatment; assay type: in vivo, male Wistar rats; details: after 10-day treatment, compared with other groups
Text: as §1, with “oleoyl-estrone. […]” for “oleoyl-estrone.”

Compound | loss of lipid (body lipid) [1] [%] | carcass energy content (ranking among groups) [2] | decrease in food consumption [2] [%] | loss of energy from the internal stores [2] [kJ] | plasma triacylglycerol levels [3] | loss of body weight [1] | net contribution of internal stores to energy expenditure [2] [%]
CCCCCCCC/C=C\CCCCCCCC(=O)Oc1ccc2c(c1)CC[C@@H]1[C@@H]2CC[C@]2(C)C(=O)CC[C@@H]12 [oleoyl-estrone, [3(Z)]-3-[(1-oxo-9-octadecenyl)oxy]-estra-1,3,5(10)-trien-17-one] | 13 | smaller | 32 | 357 | lower; also recorded: decreased | – | –
CC(C)CC(N(C)C)C1(c2ccc(Cl)cc2)CCC1 (stereo not shown) [sibutramine] | 15 | smaller | 26 | 403 | – | 4% and 3.8% | ~20
CCN[C@@H](C)Cc1cccc(C(F)(F)F)c1 [dexfenfluramine] | ~16 | – | 23 | 546 | – | 3% and 2.6% | ~20

Source: US20060258631A1, “Methods of using fatty-acid esters of estrogens and serotonin reuptake inhibiting compounds for reducing the body weight of a mammal and compositions containing the same” (Oleoyl-Estrone Development SL, priority 2004, published 2006)
